# “Also recorded” adds a separate entry of the source.
# Tests used:
# LXRα [1] = molecular target: T1, LXRα (Homo sapiens, UniProt Q13133); experiment: GAL4-LXRα / UAS-luc co-transfection reporter assay in HEK293 cells; format: cell-based; parameters: co-transfecting UAS-reporter and GAL4-LBD of the nuclear receptors LXRα, LXRβ and GR; GAL4 (fusion partner); expressed in transfected cells; host or cells: HEK293 cells; mouse primary hepatocytes
# T1 sequence (Q13133 209-447 limits assumed): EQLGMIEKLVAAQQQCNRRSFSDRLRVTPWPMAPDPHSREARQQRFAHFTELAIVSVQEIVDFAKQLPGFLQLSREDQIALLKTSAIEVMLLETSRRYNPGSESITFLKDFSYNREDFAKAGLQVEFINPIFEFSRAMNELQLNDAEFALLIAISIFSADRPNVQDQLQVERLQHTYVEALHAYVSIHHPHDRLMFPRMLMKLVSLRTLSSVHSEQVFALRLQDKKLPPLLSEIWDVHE
# Description: (§1) RLU=relative luciferase units.
# as §1
# Further experiments were then carried out to determine the inhibitory potencies for the individual LXR isoforms in HEK 293 cells by co-transfecting UAS-reporter and GAL4-LBD of the nuclear receptors LXRα, LXRβ and GR and then treating with 8 different concentrations of GSK2033. To assess suppression of ligand activated receptors, the transfected cells were co-treated with increasing doses of GSK2033, in addition to T09091317 or Dex (dexamethasone) (at EC80 of LXR isoforms and GR, respectively).
# A number of experiments were carried out to determine the relative inhibitory potencies of GSK2033, Amgen 54 and DMHCl for the individual LXR isoforms in HEK 293 cells by co-transfecting UAS-reporter and GAL4-LBD of the nuclear receptors LXRα, LXRβ and GR and then treating with 6 different concentrations of GSK2033, Amgen 54 and DMHCl. To assess suppression of ligand activated receptors, the transfected cells were co-treated with increasing doses of GSK2033, Amgen 54 and DMHCl, in addition to T09091317 or Dex (at EC80 of LXR isoforms and GR, respectively).
# G6Pc = G6Pc gene expression in mouse primary hepatocytes; conditions: LXRα−/− hepatocytes
# LXRα−/− mice [2] = experiment: In vivo pilot study: T09 with GSK2033, liver LXR target genes
# [3] = test system: tyrosine aminotransferase (TAT); experiment: TAT gene expression in mouse primary hepatocytes; format: cell-based; conditions: WT, LXRα−/− and LXRβ−/− hepatocytes; 100 nM Dex + 10 μM GSK2033
# Description: T09 treatment was used as a positive control for LXR activity. (D) Glucose output over 24 hrs from LXRα−/− and LXRβ−/− mouse primary hepatocytes following Dex 100 nM±10 μM GSK2033 treatment. (E) Glucose output over 8 hrs from WT hepatocytes following Dex 500 nM±10 μM GSK2033 treatments. […] Legend: V=vehicle, G=GSK2033 (LXR antagonist); D=dexamethasone (GR agonist); and T09=T0901317 (LXR agonist).
# IL-6 = IL-6 gene expression in LPS activated mouse primary macrophages (RT-QPCR); format: cell-based
# Description: (§2) The expression of genes involved in immune response IL-1β, IL-6 and GILZ was measured following an overnight treatment with Dex 100 nM, 250 nM T0901317 (T09), and/or 10 μM GSK2033 in LPS activated WT, LXR α −/− and LXRβ −/− mouse primary macrophages, by RT-QPCR. Data represent the Avg±SD, N=3. *P<0.05 by One way ANOVA, Student Newman Keuls.
# (§3) To assess the ability of GSK2033 to affect GR-mediated inflammatory suppression, a number of gene expression studies were conducted on primary macrophages isolated from WT, LXRα−/− and LXRβ−/− mice. Cells were pre-treated with 10 ng/ml lipopolysaccharide (LPS) for 6 hrs (to induce a potent inflammatory response) followed by treatment of 100 nM Dex, 10 μM GSK2033 and/or 250 nM T09 for 18 hrs.
# GILZ = GILZ gene expression in LPS activated mouse primary macrophages (RT-QPCR); format: cell-based; conditions: 100 nM Dex + 10 μM GSK2033, 18 hrs
# Description: as §2, §3
# LXRα [4] = molecular target: T1, LXRα; experiment: GAL4-LXRα / UAS-luc transfection assay in mouse primary hepatocytes
# LXRα [5] = molecular target: T1, LXRα; experiment: cell-based
# LXRα−/− mice [6] = experiment: In vivo 5 day Dex ± GSK2033 co-treatment study; parameters: species or system mouse
# Description: LXRα−/− mice were treated with Vehicle (Veh), Dex (2.5 mg/kg) b.i.d. or GSK2033 40 mg/kg (once a day) along with Dex b.i.d. for 5 days. (A) Plasma glucose levels were measured by a colorimetric kit (Wako). (B) Spleen weights were measured at the time of sacrifice, and are presented normalized to body weight. (C) Liver Pepck, FOXO1, Pgc 1α, FGF21, GR and LXRβ gene expression measured by QPCR. Data represent the Avg±SEM, N=2-5. *P<0.05 by One way ANOVA, Student Newman Keuls.
# Having observed promising results with GSK2033 co-treatment with Dex in-vitro (GSK2033-mediated suppression of GC-induced gluconeogenic side effects without affecting desirable immune suppression); a study was conducted, in which whole body LXRα−/− mice were treated with vehicle (Veh), 2.5 mg/kg bid (subcutaneous injection) Dex or Dex+40 mg/kg GSK2033 (once a day intraperitoneal injection) for 5 days, and sacrificed at lights on.
# [7] = T09 5 mg/kg i.p. + GSK2033 20 or 40 mg/kg i.p.
# [8] = across the treatment groups (Veh, Dex, Dex+GSK2033)
compound,measurement,setting,value
"Cc1cc(C)c(S(=O)(=O)N(Cc2ccc(-c3cccc(S(C)(=O)=O)c3)cc2)Cc2ccc(C(F)(F)F)o2)c(C)c1 [GSK2033, 2,4,6-trimethyl-N-((3′-(methylsulfonyl)-[1,1′-biphenyl]-4-yl)methyl)-N-((5-(trifluoromethyl)furan-2-yl)methyl)benzenesulfonamide]",IC50,"LXRα [1]; Example 1, T0901317 at EC80 (250 nM), 8 concentrations, read-out: IC50 against LXRα",0.079 µM
same,IC50,"LXRα [1]; Example 7, T0901317 250 nM, 6 concentrations, read-out: IC50 to inhibit LXRα",0.022 µM
same,basal repression of LXRα,"LXRα [1]; preliminary experiment, 3 doses",basal repression
same,G6Pc expression,"G6Pc; Example 6, 100 nM Dex + 10 μM GSK2033",4.9 fold
same,G6Pc expression,"G6Pc; Example 6, 10 μM Cortisol + 10 μM GSK2033",7.5 fold
same,G6Pc expression,"G6Pc; Example 6, 10 μM Prednisone + 10 μM GSK2033",9.8 fold
same,G6Pc expression,"G6Pc; Example 6, 10 μM Triamcinolone acetonide + 10 μM GSK2033",8.6 fold
same,G6Pc expression,"G6Pc; Example 8, 100 nM Dex + 10 μM LXR antagonist",5.3 fold
same,liver ABCG5 activation by T09,LXRα−/− mice [2]; [7],dose dependent inhibition; also recorded: dose dependent repression
same,liver ABCG8 activation by T09,LXRα−/− mice [2]; [7],dose dependent inhibition; also recorded: dose dependent repression
same,toxicity,LXRα−/− mice [2]; higher dose of GSK2033 (40 mg/kg),no toxicity
same,Dex induction of TAT under GSK2033 co-treatment,[3],not altered
same,T09 mediated suppression of IL-6 under GSK2033 co-treatment,"IL-6; LPS activated macrophages, 250 nM T09 + 10 μM GSK2033",antagonized
same,Dex-mediated IL-6 repression under GSK2033 co-treatment,"IL-6; WT, LXRα−/− and LXRβ−/− macrophages, LPS 10 ng/ml 6 hrs, 100 nM Dex + 10 μM GSK2033, 18 hrs",unaffected
same,GR-mediated induction of GILZ under GSK2033 co-treatment,GILZ,unaffected
same,"right-shift of LXRα IC50, primary hepatocytes vs HEK293",LXRα [4],~10 fold
same,IC50,LXRα [5],0.66 µM
same,spleen size (weight normalized to body weight),"LXRα−/− mice [6]; Dex 2.5 mg/kg bid + GSK2033 40 mg/kg, 5 days, vs Veh",significantly smaller
same,liver FOXO 1 gene induction,LXRα−/− mice [6]; Dex+GSK2033 group,normalized
same,liver Pepck gene induction,LXRα−/− mice [6]; Dex+GSK2033 group,normalized
same,liver GR gene expression,LXRα−/− mice [6]; [8],did not change
same,liver LXR gene expression,LXRα−/− mice [6]; [8],did not change

# Source: patent US9428753B2, “Use of LXR antagonists for treatment of side effects of elevated glucocorticoid levels” (The Governing Council of the University of Toronto, priority 2013, dated 2016)
